From patent US11098095B1, “Methods of inhibiting MMP-9” (DASMAN DIABETES INSTITUTE, priority 2020, dated 2021) come the findings set out here.

Holding throughout (format): cell-based
Test [1] concerns MMP-9 protein secretion by monocytes (THP-1 cells) and macrophages. Put plainly: MMP-9 secreted protein in culture supernatants by sandwich ELISA. Conditions: for cross-talk effect of IL-6 and TNF-α stimulation on the secretion of MMP-9 by monocytes: then IL-6/TNF-α for 24 hr; for crosstalk effect of IL-6 on TNF-α's enhancement of MMP-9 expression and secretion: summary statement, concentration not given; for MMP-9 protein secretion levels: monocytes and macrophages, stimulated 24 hr, FIGS. 2A-2B. As to the method:
Monocytes (THP-1 cells and macrophages were cultured in 12-well plates (Costar, Corning Incorporated, Corning, N.Y., USA) at a cell density of 1/10^6 cells/well. Cells were pre-incubated with gp130 inhibitor (SC-144, 1.5 μM) or JAK2 inhibitor (AG-490, 30 μM) for 1 hour and then stimulated with IL-6 or TNF-α or IL-6/TNF-α for 24 hr at 37° C. (with humidity) in 5% CO2. Control cells were incubated with culture media only. Culture media and cells were harvested and MMP9 mRNA and protein expression levels were assessed by real-time PCR (RT-PCR) and ELISA. MMP-9 secreted protein in the supernatants of monocytes and macrophages stimulated with IL-6, TNF-α, or IL-6 and TNF-α was quantified using sandwich ELISA following the manufacturers instructions (SMP900, R&D systems, Minneapolis, USA). As illustrated in FIGS. 2A-2B. […] As illustrated in FIGS. 3A-3B, this robust cross-talk effect of IL-6 and TNF-α stimulation on the secretion of MMP-9 by monocytes may be extinguished by administration of either a JAK2 inhibitor AG-490, See FIG. 3A) or a gp130 inhibitor (SC-144, See FIG. 3B).

In test [2] the test system is MMP-9 proteolytic activity in conditioned media of THP-1 cells. Put plainly: MMP9 proteolytic activity measured using gelatin zymography. The settings on record: monocytes (THP-1), 24 hours incubation. As to the method: THP-1 cells were incubated with TNF-α and IL-6. After incubation for 24 hours, conditioned media were collected and mixed with Zymogram sample buffer (BioRad; 62.5 mM Tris-HCl, pH.6.8, 25% glycerol, 4% SDS and 0.01% bromophenol blue) and then loaded on to a 10% polyacrylamide gel with gelatin (10% Ready Gel Zymogram Gel, BioRad) for electrophoresis. The gel was incubated with renaturing buffer BioRad (2.5% Triton X-100) for 1 hour at room temperature and Incubated with zonogram developing buffer.

The subject of test [3] is MMP-9 mRNA expression in monocytes (THP-1 cells) and macrophages. Put plainly: MMP-9 mRNA expression by real-time PCR (RT-PCR). Conditions: stimulated 24 hr, FIGS. 1A and 1B. As to the method:
Monocytes (THP-1 cells and macrophages were cultured in 12-well plates (Costar, Corning Incorporated, Corning, N.Y., USA) at a cell density of 1/10^6 cells/well. Cells were pre-incubated with gp130 inhibitor (SC-144, 1.5 μM) or JAK2 inhibitor (AG-490, 30 μM) for 1 hour and then stimulated with IL-6 or TNF-α or IL-6/TNF-α for 24 hr at 37° C. (with humidity) in 5% CO2. Control cells were incubated with culture media only. Culture media and cells were harvested and MMP9 mRNA and protein expression levels were assessed by real-time PCR (RT-PCR) and ELISA.
Total RNA was extracted using RNeasy Mini Kit (Qiagen, Valencia, Calif.; USA). […] For RT-PCR, cDNA template (50 ng) was amplified using inventoried TaqMan Gene Expression Assay products (MMP-9; Hs00234579_m1; GAPDH; Bs0392909_g1; containing two gene-specific printers and one TaqMan MGB probe (6-FAM dye-labeled) with a TaqMan Gene Expression Master Mix (Applied Biosystems, Foster City, Calif., USA) and a 7500 Fast Real-Time PCR System (Applied Biosystems, Foster City, Calif., USA). The mRNA levels were normalized against GAPDH mRNA and MMP-9 mRNA expression relative to control was calculated using the 2^−ΔΔCt-method. Relative mRNA expression is shown as told expression over average of control gene expression. […] The results were analyzed statistically and P<0.05 was considered significant.

`N#C/C(=C\c1ccc(O)c(O)c1)C(=O)NCc1ccccc1` [AG490]: the “cross-talk effect of IL-6 and TNF-α stimulation on the secretion of MMP-9 by monocytes” value in test [1] (AG-490 30 μM pre-incubated 1 hour, FIG. 3A) is given as “extinguished”. Besides, in test [1], the “crosstalk effect of IL-6 on TNF-α's enhancement of MMP-9 expression and secretion” value was “suppress”.
For `O=C(NNc1nc2cc(F)ccc2n2cccc12)c1cnccn1` [SC-144], in test [1] (SC-144 1.5 μM pre-incubated 1 hour, FIG. 3B), the “cross-talk effect of IL-6 and TNF-α stimulation on the secretion of MMP-9 by monocytes” value was “extinguished”. For the same molecule, the “crosstalk effect of IL-6 on TNF-α's enhancement of MMP-9 expression and secretion” value in test [1] is on record as “suppress”.
Consider interleukin-6 [IL-6], for which the “MMP-9 protein secretion levels” value in test [1] was “minimally effected”. Besides, the MMP-9 proteolytic activity entry in test [2] was “minimal”.
As to tumor necrosis factor alpha [TNF-α], the “MMP-9 protein secretion levels” value in test [1] is “increased”. The “MMP-9 mRNA expression relative to control” value in test [3] is listed as “increase”. The MMP-9 proteolytic activity entry in test [2] was “lesser”.
